Experimental data from patent publication US20250268873A1, “COMBINATION OF DUAL ATM AND DNA-PK INHIBITORS AND IMMUNOTHERAPEUTIC AGENTS FOR USE IN CANCER THERAPY” (XRAD THERAPEUTICS, INC., priority 2021, published 2025).

Legend:
A549 cells = assay: Clonogenic Survival Assay in A549 cells; assay type: cell-based, human; details: for Fold 2 Gy / Fold 4 Gy: vs DMSO; for % survival @ 0 Gy w/out IR: no IR
Protocol: Human cancer cell lines, including MCF-7 human breast carcinoma cell line and A549 human lung carcinoma cell line, and HCT116 p53 wild-type and HCT116 p53−/− cell lines were obtained from ATCC. MCF7 and HCT116 cells were cultured in Dulbecco's modified Eagle's medium (DMEM (Gibco #11995-065). MDA-MB-231 human triple negative breast cancer cell line and FADU, human head and neck squamous cell carcinoma line, were obtained from Charles River Laboratories (Morrisville, NC). MDA-MB-231 and A549 cells were cultured in RPMI 1640 medium (Gibco, 11875-093). FADU cells were cultured in Minimum Essential Medium α (MEM α) (Gibco, 12571-063) supplemented with 1 mM Sodium Pyruvate (Gibco, 11360-070), 1×MEM Non-Essential Amino Acids (Gibco, 11140-050). All cell lines were supplemented with 10% fetal bovine serum (FBS) (Corning, 35-010-CV) and 1× Antibiotic-Antimycotic (Gibco #15240-062) and were grown at 37° C. in 5% CO2. All cell lines were authenticated by short tandem repeat profiling and tested negative for mycoplasma.
This assay was performed with Compound 569 as an exemplary Formula (I) compound. Cells were plated in 6-well plates at different densities: 250 cells for no IR control, 5000 cells for 2 Gy of IR and 10000 cells for 4 Gy of IR and cultured overnight. The next day, MCF7 cells were preincubated with compound 569 at 100, 250, 500, or 1000 nM or DMSO for 30 min before being exposed to increasing doses of IR (0, 2, or 4 Gy). The A549 cells were incubated with Compound 569 at 500 or 1000 nM or with DMSO for 30 min before being exposed to increasing doses of IR (0, 2, or 4 Gy). After IR, cells were continuously incubated with DMSO or compound 569 for 5 h before the culture medium was removed and cells were washed with PBS. Cells were cultured in complete medium in the absence of inhibitor for 9 days. Then cells were stained (PBS, […], 0.1% crystal violet) rinsed with water and dried.

mTOR = mTOR (Homo sapiens, UniProt P42345); assay: mTOR Biochemical Assay (LanthaScreen TR-FRET); details: ATP 3 μM
Protocol: mTOR Kinase reactions were performed in a 10 μL volume in low-volume 384-well plates. Typically, PerkinElmer model 6008260 plates were used. The composition of the 1× kinase reaction buffer was: 50 mM HEPES pH 7.5, 0.01% Tween 20, 1 mM EGTA, 10 mM MnCl2, and 2 mM DTT. The solution of mTOR enzyme (ThermoFisher, #PR8683B; the final mTOR concentration: 0.5 μg/mL) was added, and the compounds were serially diluted to the final maximal concentration of 100 nM (3 fold series dilution, a total of 10 doses). GFP-4E-BP1 (the final concentration: 0.4 μM) and the ATP solution (the final ATP concentration: 3 μM) were added to the 384-well plate. The plate was incubated at 25° C. for 1 hour, and 10 μL of the EDTA solution (20 mM) and Tb-labeled anti-p4E-BP1 antibody (4 nM) in TR-FRET dilution buffer were added to each well. The plate was sealed, incubated 30 min at 25° C., and read on a plate reader configured for LanthaScreen™ TRFRET.

CC(C)NCCOc1ncc(-c2cc3c4c(cnc3cc2F)N(C)C(=O)C42CCC2)cc1NS(C)(=O)=O [Compound 569, N-(5-(7′-Fluoro-3′-methyl-2′-oxo-2′,3′-dihydrospiro[cyclobutane-1,1′-pyrrolo[2,3-c]quinolin]-8′-yl)-2-(2-(isopropylamino)ethoxy)pyridin-3-yl)methanesulfonamide]
cellular toxicity in the absence of IR (A549 cells; 5-h exposure): without evidence of cellular toxicity
radiosensitization (A549 cells; 5-h exposure, 500 and 1000 nM, 0, 2, 4 Gy): significant degree of radiosensitization
Clonogenic survival ratio 0 Gy (A549 cells; 569 500 nM): 1.000
Clonogenic survival ratio 2 Gy (A549 cells; 569 500 nM): 0.0780
Fold 2 Gy (A549 cells; 569 500 nM): 9.3
Clonogenic survival ratio 4 Gy (A549 cells; 569 500 nM): 0.0044
Fold 4 Gy (A549 cells; 569 500 nM): 64
% survival @ 0 Gy w/out IR (A549 cells; 569 500 nM): 110%
Clonogenic survival ratio 0 Gy (A549 cells; 569 1000 nM): 1.000
Clonogenic survival ratio 2 Gy (A549 cells; 569 1000 nM): 0.0520
Fold 2 Gy (A549 cells; 569 1000 nM): 14
Clonogenic survival ratio 4 Gy (A549 cells; 569 1000 nM): 0.0015
Fold 4 Gy (A549 cells; 569 1000 nM): 188
% survival @ 0 Gy w/out IR (A549 cells; 569 1000 nM): 103%
IC50 (mTOR): > 100 nM
